Reference: patent publication US9850283B2, “Macrocyclic inhibitors of the PD-1/PD-L1 and CD80(B7-1)/PD-L1 protein/protein interactions” (BRISTOL-MYERS SQUIBB COMPANY, priority 2013, dated 2017)
Positions of bridges follow the written chain, without caps; N, C: chain ends. Non-standard residues stand in square brackets, D forms with d. Residues, ends and D or L forms follow the SMILES beside them. Phe(3-Cl) = N[C@@H](Cc1cccc(Cl)c1)C(=O)O; NMeF = CN[C@@H](Cc1ccccc1)C(=O)O; Chg = N[C@H](C(=O)O)C1CCCCC1; NMeNle = CCCC[C@H](NC)C(=O)O; Dap = NC[C@H](N)C(=O)O; Sar = CNCC(=O)O

Assays:
[1] = molecular target: T1, LK35.2-hPD-L1 cells / PE-labeled PD-1-Ig (Homo sapiens, UniProt Q9NZQ7); experiment: LK35.2-hPD-L1 cell binding high-content screening assay; format: cell-based; conditions: cluster symbol; cell line of CBA not given (LK35.2-hPD-L1 or 293T-hPD-L1); read-out: CBA IC50 cluster
T1 construct: expressed in transfected cells; host or cells: LK35.2 mouse B cell line
Outline: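 Binding of PE-conjugated human PD-1-Ig (1 nM final) to human PD-L1 stably expressed on a mouse B-cell line (LK35.2) was measured by high-content imaging after washes. Compound and labeled PD-1-Ig were co-incubated 1 h at 37 °C with cells in RPMI/10% FCS.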

Human PD-L1/PD-1 = molecular target: T2, Human PD-L1/PD-1 (Homo sapiens, UniProt Q9NZQ7); experiment: HTRF PD-1-Ig/PD-L1-His binding assay (human PD-L1); conditions: cluster symbol; read-out: HTRF IC50 cluster
T2 construct: made in house; host or cells: HEK293T
Outline: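 Ig- and His-fused extracellular PD-1/PD-L1 binding in BSA/Tween-20 dPBS. HTRF with Eu anti-Ig (1 nM final) and APC anti-His (20 nM final).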

T1 sequence (Q9NZQ7 19-290): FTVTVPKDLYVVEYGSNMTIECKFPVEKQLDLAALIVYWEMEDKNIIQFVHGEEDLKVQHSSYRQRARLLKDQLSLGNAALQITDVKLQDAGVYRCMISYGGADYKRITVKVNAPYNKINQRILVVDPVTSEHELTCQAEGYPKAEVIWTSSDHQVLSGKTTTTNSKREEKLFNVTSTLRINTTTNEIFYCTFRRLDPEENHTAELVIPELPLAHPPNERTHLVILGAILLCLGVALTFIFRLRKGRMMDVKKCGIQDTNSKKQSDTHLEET
T2 sequence (Q9NZQ7 with tags, fused parts or gaps): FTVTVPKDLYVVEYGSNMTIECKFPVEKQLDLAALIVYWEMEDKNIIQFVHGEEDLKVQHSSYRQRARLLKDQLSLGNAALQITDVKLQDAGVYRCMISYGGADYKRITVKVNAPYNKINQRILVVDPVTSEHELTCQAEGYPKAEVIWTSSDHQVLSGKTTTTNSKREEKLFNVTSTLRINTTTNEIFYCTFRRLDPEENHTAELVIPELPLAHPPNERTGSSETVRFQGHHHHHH

| SMILES | IC50 [1] | IC50 (Human PD-L1/PD-1) |
| --- | --- | --- |
| CCCC[C@H]1C(=O)N(C)CC(=O)N[C@@H](CC(=O)O)C(=O)N[C@@H](C2CCCCC2)C(=O)N(C)[C@@H](Cc2ccccc2)C(=O)N[C@@H](Cc2ccc(O)cc2)C(=O)N(C)CC(=O)N[C@@H](Cc2c[nH]c3ccccc23)C(=O)N[C@@H](Cc2ccc(O)cc2)C(=O)N[C@@H](CC(C)C)C(=O)N[C@H](C(=O)NCC(N)=O)CSCC(=O)N[C@@H](Cc2ccccc2)C(=O)N(C)[C@@H](Cc2ccccc2)C(=O)N1C [Example 3158] ({CH2CO}-F[NMeF][NMeNle][Sar]D[Chg][NMeF]Y[Sar]WYLCG-NH2; thioether N-13) | 4.78 to 72.9 nM | > 30.5 nM |
| CCCC[C@H]1C(=O)N(C)CC(=O)N[C@@H](CC(=O)O)C(=O)N[C@@H](CC2CCCCC2)C(=O)N(C)[C@@H](Cc2ccccc2)C(=O)N[C@@H](Cc2ccc(O)cc2)C(=O)N(C)CC(=O)N[C@@H](Cc2c[nH]c3ccccc23)C(=O)N[C@@H](Cc2ccc(O)cc2)C(=O)N[C@@H](CC(C)C)C(=O)N[C@H](C(=O)NCC(N)=O)CSCC(=O)N[C@@H](Cc2ccccc2)C(=O)N(C)[C@@H](Cc2ccccc2)C(=O)N1C [Example 3159] (HELM PEPTIDE1{[O=C(C[*:3])[*:2]].F.[meF].[CCCC[C@@H](C(=O)[*:2])N(C)[*:1]].[Sar].D.[Cha].[meF].Y.[Sar].W.Y.L.C.G.[am]}$PEPTIDE1,PEPTIDE1,1:R3-14:R3$$$V2.0) | > 74.3 nM | > 30.5 nM |
| CCCC[C@H]1C(=O)N(C)CC(=O)N[C@@H](CC(=O)O)C(=O)N[C@@H](C(C)C)C(=O)N(C)[C@@H](Cc2ccccc2)C(=O)N[C@@H](Cc2ccc(O)cc2)C(=O)N(C)CC(=O)N[C@@H](Cc2c[nH]c3ccccc23)C(=O)N[C@@H](Cc2ccc(O)cc2)C(=O)N[C@@H](CC(C)C)C(=O)N[C@H](C(=O)NCC(N)=O)CC=CC(=O)N[C@@H](Cc2ccccc2)C(=O)N(C)[C@@H](Cc2ccccc2)C(=O)N1C [Example 3160] | > 74.3 nM | > 30.5 nM |
| CCCC[C@H]1C(=O)N(C)CC(=O)N[C@@H](CC(=O)O)C(=O)N[C@@H](C(C)C)C(=O)N(C)[C@@H](Cc2ccccc2)C(=O)N[C@@H](Cc2ccc(O)cc2)C(=O)N(C)CC(=O)N[C@@H](Cc2c[nH]c3ccccc23)C(=O)N[C@@H](Cc2ccc(O)cc2)C(=O)N[C@@H](CN)C(=O)N[C@H](C(=O)NCC(N)=O)CSCC(=O)N[C@@H](Cc2ccccc2)C(=O)N(C)[C@@H](Cc2ccccc2)C(=O)N1C [Example 3161] ({CH2CO}-F[NMeF][NMeNle][Sar]DV[NMeF]Y[Sar]WY[Dap]CG-NH2; thioether N-13) | 4.78 to 72.9 nM | 6.76 to 30.3 nM |
| CCCC[C@H]1C(=O)N(C)CC(=O)N[C@@H](CC(=O)O)C(=O)N[C@@H](C(C)C)C(=O)N(C)[C@@H](Cc2ccccc2)C(=O)N[C@@H](Cc2ccc(O)cc2)C(=O)N(C)CC(=O)N[C@@H](Cc2c[nH]c3ccccc23)C(=O)N[C@@H](Cc2ccc(O)cc2)C(=O)N[C@@H](CCN)C(=O)N[C@H](C(=O)NCC(N)=O)CSCC(=O)N[C@@H](Cc2ccccc2)C(=O)N(C)[C@@H](Cc2ccccc2)C(=O)N1C [Example 3162] (HELM PEPTIDE1{[O=C(C[*:3])[*:2]].F.[meF].[CCCC[C@@H](C(=O)[*:2])N(C)[*:1]].[Sar].D.V.[meF].Y.[Sar].W.Y.[Dab].C.G.[am]}$PEPTIDE1,PEPTIDE1,1:R3-14:R3$$$V2.0) | 4.78 to 72.9 nM | 6.76 to 30.3 nM |
| CCCC[C@H]1C(=O)N(C)CC(=O)N[C@@H](CC(=O)O)C(=O)N[C@@H](C(C)C)C(=O)N(C)[C@@H](Cc2ccccc2)C(=O)N[C@@H](Cc2ccc(O)cc2)C(=O)N(C)CC(=O)N[C@@H](Cc2c[nH]c3ccccc23)C(=O)N[C@@H](Cc2ccc(O)cc2)C(=O)N[C@@H](CCCN)C(=O)N[C@H](C(=O)NCC(N)=O)CSCC(=O)N[C@@H](Cc2ccccc2)C(=O)N(C)[C@@H](Cc2ccccc2)C(=O)N1C [Example 3163] (HELM PEPTIDE1{[O=C(C[*:3])[*:2]].F.[meF].[CCCC[C@@H](C(=O)[*:2])N(C)[*:1]].[Sar].D.V.[meF].Y.[Sar].W.Y.[Orn].C.G.[am]}$PEPTIDE1,PEPTIDE1,1:R3-14:R3$$$V2.0) | 4.78 to 72.9 nM | 6.76 to 30.3 nM |
| CCCC[C@H]1C(=O)N(C)CC(=O)N[C@@H](CC(=O)O)C(=O)N[C@@H](C(C)C)C(=O)N(C)[C@@H](Cc2ccccc2)C(=O)N[C@@H](Cc2ccc(O)cc2)C(=O)N(C)CC(=O)N[C@@H](Cc2c[nH]c3ccccc23)C(=O)N[C@@H](Cc2ccc(O)cc2)C(=O)N[C@@H](CCCCN)C(=O)N[C@H](C(=O)NCC(N)=O)CSCC(=O)N[C@@H](Cc2ccccc2)C(=O)N(C)[C@@H](Cc2ccccc2)C(=O)N1C [Example 3164] (HELM PEPTIDE1{[O=C(C[*:3])[*:2]].F.[meF].[CCCC[C@@H](C(=O)[*:2])N(C)[*:1]].[Sar].D.V.[meF].Y.[Sar].W.Y.K.C.G.[am]}$PEPTIDE1,PEPTIDE1,1:R3-14:R3$$$V2.0) | 4.78 to 72.9 nM | 6.76 to 30.3 nM |
| CCCC[C@H]1C(=O)N(C)CC(=O)N[C@@H](CC(=O)O)C(=O)N[C@@H](C(C)C)C(=O)N(C)[C@@H](Cc2ccccc2)C(=O)N[C@@H](Cc2ccc(O)cc2)C(=O)N(C)CC(=O)N[C@@H](Cc2c[nH]c3ccccc23)C(=O)N[C@@H](Cc2ccc(O)cc2)C(=O)N[C@@H](Cc2c[nH]cn2)C(=O)N[C@H](C(=O)NCC(N)=O)CSCC(=O)N[C@@H](Cc2ccccc2)C(=O)N(C)[C@@H](Cc2ccccc2)C(=O)N1C [Example 3165] (HELM PEPTIDE1{[O=C(C[*:3])[*:2]].F.[meF].[CCCC[C@@H](C(=O)[*:2])N(C)[*:1]].[Sar].D.V.[meF].Y.[Sar].W.Y.H.C.G.[am]}$PEPTIDE1,PEPTIDE1,1:R3-14:R3$$$V2.0) | 4.78 to 72.9 nM | 6.76 to 30.3 nM |
| CCCC[C@H]1C(=O)N(C)CC(=O)N[C@@H](CC(=O)O)C(=O)N[C@@H](C(C)C)C(=O)N(C)[C@@H](Cc2ccccc2)C(=O)N[C@@H](Cc2ccc(O)cc2)C(=O)N2CCC[C@@H]2C(=O)N[C@@H](Cc2c[nH]c3ccccc23)C(=O)N[C@@H](Cc2ccc(O)cc2)C(=O)N[C@@H](CC(C)C)C(=O)N[C@H](C(N)=O)CSCC(=O)N[C@@H](Cc2cccc(Cl)c2)C(=O)N(C)[C@@H](Cc2ccccc2)C(=O)N1C [Example 3166] ({CH2CO}-[Phe(3-Cl)][NMeF][NMeNle][Sar]DV[NMeF]Y[dP]WYLC-NH2; thioether N-13) | 0.158 to 4.71 nM | 6.76 to 30.3 nM |
| CCCC[C@H]1C(=O)N(C)CC(=O)N[C@@H](CC(=O)O)C(=O)N[C@@H](C(C)C)C(=O)N(C)[C@@H](Cc2ccc(O)cc2)C(=O)N[C@@H](Cc2ccc(O)cc2)C(=O)N(C)CC(=O)N[C@@H](Cc2c[nH]c3ccccc23)C(=O)N[C@@H](Cc2ccc(O)cc2)C(=O)N[C@@H](CC(C)C)C(=O)N[C@H](C(=O)NCC(N)=O)CSCC(=O)N[C@@H](Cc2ccccc2)C(=O)N(C)[C@@H](Cc2ccccc2)C(=O)N1C [Example 3168] (HELM PEPTIDE1{[O=C(C[*:3])[*:2]].F.[meF].[CCCC[C@@H](C(=O)[*:2])N(C)[*:1]].[Sar].D.V.[meY].Y.[Sar].W.Y.L.C.G.[am]}$PEPTIDE1,PEPTIDE1,1:R3-14:R3$$$V2.0) | > 74.3 nM | > 30.5 nM |
| CCCC[C@@H]1NC(=O)CSC[C@@H](C(=O)NCC(N)=O)NC(=O)[C@H](CC(C)C)NC(=O)[C@H](Cc2ccc(O)cc2)NC(=O)[C@H](Cc2c[nH]c3ccccc23)NC(=O)CN(C)C(=O)[C@H](Cc2ccc(O)cc2)NC(=O)[C@H](Cc2ccccc2)N(C)C(=O)[C@H](C(C)C)NC(=O)[C@H](CC(=O)O)NC(=O)CN(C)C(=O)[C@H](CCCC)N(C)C(=O)[C@H](Cc2ccccc2)N(C)C1=O [Example 3171] (HELM PEPTIDE1{[O=C(C[*:3])[*:2]].[Nle].[meF].[CCCC[C@@H](C(=O)[*:2])N(C)[*:1]].[Sar].D.V.[meF].Y.[Sar].W.Y.L.C.G.[am]}$PEPTIDE1,PEPTIDE1,1:R3-14:R3$$$V2.0) | > 74.3 nM | > 30.5 nM |
| CCCC[C@H]1C(=O)N(C)CC(=O)N[C@@H](CC(=O)O)C(=O)N[C@@H](C(C)C)C(=O)N(C)[C@@H](Cc2ccccc2)C(=O)N[C@@H](Cc2ccc(O)cc2)C(=O)N(C)CC(=O)N[C@@H](Cc2c[nH]c3ccccc23)C(=O)N[C@@H](Cc2ccc(O)cc2)C(=O)N[C@@H](CC(C)C)C(=O)N[C@H](C(=O)NCC(N)=O)CSCC(=O)N[C@@H](CCSC)C(=O)N(C)[C@@H](Cc2ccccc2)C(=O)N1C [Example 3172] (HELM PEPTIDE1{[O=C(C[*:3])[*:2]].M.[meF].[CCCC[C@@H](C(=O)[*:2])N(C)[*:1]].[Sar].D.V.[meF].Y.[Sar].W.Y.L.C.G.[am]}$PEPTIDE1,PEPTIDE1,1:R3-14:R3$$$V2.0) | > 74.3 nM | > 30.5 nM |
| CCCC[C@H]1C(=O)N2CCC[C@@H]2C(=O)N2CCC[C@H]2C(=O)N[C@@H](C(C)C)C(=O)N(C)[C@@H](Cc2ccccc2)C(=O)N[C@@H](Cc2ccc(O)cc2)C(=O)N(C)CC(=O)N[C@@H](Cc2c[nH]c3ccccc23)C(=O)N[C@@H](Cc2ccc(O)cc2)C(=O)N[C@@H](CC(C)C)C(=O)N[C@H](C(=O)NCC(N)=O)CSCC(=O)N[C@@H](Cc2ccccc2)C(=O)N(C)[C@@H](Cc2ccccc2)C(=O)N1C [Example 3173] (HELM PEPTIDE1{[O=C(C[*:3])[*:2]].F.[meF].[CCCC[C@@H](C(=O)[*:2])N(C)[*:1]].[dP].P.V.[meF].Y.[Sar].W.Y.L.C.G.[am]}$PEPTIDE1,PEPTIDE1,1:R3-14:R3$$$V2.0) | 4.78 to 72.9 nM | > 30.5 nM |
